System: chick embryo chorioallantoic membranes (CAM)
Assay: chicken ex ovo chorioallantoic membrane (CAM) angiogenesis model
Type: in vivo
Description: This consists of a vascularised membrane found in bird or reptile eggs. In mammals, this structure forms the placenta. The model for the study will be a chicken ex OVO (without the shell) CAM model.
Fertilised chicken eggs were used.
For the study, VEGF-A was used as the positive control.
Potassium sucrose octasulphate salt (KSOS) is presented in the form of a solution at different concentrations, buffered with PBS.
A PBS buffer solution was used as a negative control.
On receipt, the eggs are stored at 13° C. to stop the development thereof until the time of the study. The eggs are then placed in incubation in a hatcher at 37° C. to enable the development of the embryo.
At 3 days, the eggs are broken unto a weighing cup so as to remove the shell, thereby rendering the embryo and all the structures accessible for future treatment. The ex ovo embryos are then placed back in the hatcher where they will continue the in vitro development thereof.
The embryos will be treated in the vehicle (PBS only), VEGF or different concentration of KSOS.
The treatment area is delimited by a silicone ring 1 cm in diameter and 0.2 in thickness. The treatment volume is 25 μl. The treated embryos are placed back in the hatcher for 48 hours.
After 48 hours of incubation, 10% skimmed milk is injected between the CAM and the yolk to separate the 2 vascularisations and increase the contrast for an optimal photographic shot. A photo is taken of the treatment area with a NIKON AZ 1 OO, NIS-element capture software, with 0.5×4 magnification.
On the basis of these photos, a number of parameters were determined using the image analysis software: • a) the total tube length (sum of the lengths of each vessel in the image), • b) the number of segments (total number of vessels connected to a branch point), • c) the number of branch points (total number of junctions connected to a segment). • b and c are representative of the formation of new characteristic vessels of angiogenesis.

Compound	angiogenesis activation (significance with respect to VEGF-A or 100 mg/mL KSOS) (30 mg/mL, 48 hours)	vascular network visible (30 mg/mL, 48 hours)	angiogenesis activation (significance with respect to VEGF-A or 100 mg/mL KSOS) (50 mg/mL, 48 hours)	vascular network visible (50 mg/mL, 48 hours)	3 parameters measured (total tube length, number of segments, number of branch points), image analysis vs PBS (100 mg/mL, 48 hours)	angiogenesis activation compared with positive control VEGF-A (100 mg/mL, 48 hours)	vascular network observed on photos (100 mg/mL, 48 hours)	CAM vascularisation at the treatment area (overall, according to the dose) (3-100 mg/mL, 48 hours)	vascular change with respect to the negative control (PBS only), photos (from 30 mg/mL, 48 hours)	concentration from which angiogenesis activation is considered significant (inferred from results at 50 and 100 mg/mL, 70 mg/mL not tested) [mg/mL]	neovascularisation of the CAM (photos of treatment area) (VEGF 0.5 μg (20 μg/mL), 25 μl, 48 hours)	3 parameters measured (total tube length, number of segments, number of branch points), image analysis vs PBS (VEGF 0.5 μg (20 μg/mL), 48 hours)
O=S(=O)([O-])OCC1OC(OC2(COS(=O)(=O)[O-])OC(COS(=O)(=O)[O-])C(OS(=O)(=O)[O-])C2OS(=O)(=O)[O-])C(OS(=O)(=O)[O-])C(OS(=O)(=O)[O-])C1OS(=O)(=O)[O-].[K+].[K+].[K+].[K+].[K+].[K+].[K+].[K+] (stereo not drawn) [KSOS, potassium sucrose octasulphate salt]	not considered to be significant	poorly developed vascular network	not considered to be significant	poorly developed vascular network	significant increase	angiogenesis activation equivalent to that observed with VEGF-A	well-developed vascular network	increase in CAM vascularisation	slight vascular change	≥ 70	–	–
VEGF [reference compound]	–	–	–	–	–	–	–	–	–	–	anarchic neovascularisation	significant increase

Reference: patent publication US20180325930A1, “Use of Oligosaccharide Compounds for Activating Angiogenesis” (Urgo Recherche Innovation et Developpement, priority 2015, published 2018)
